How the values were obtained:
[1] = tested on: BxPC-3-DPC4 cells; assay: MTS based cell proliferation assay, BxPC-3-DPC4 cells; set-up: species or system human; conditions: for IC50: BxPC-3-DPC4 (reexpression of wild-type DPC4), MTS, 4 days
Experimental: (§1) The inhibition of cell proliferation by library compounds was evaluated using the CellTiter 96 Non-Radioactive Cell Proliferation Assay following the protocol recommended by the manufacturer (Promega, Madison Wis.). Briefly, 2000 cells were seeded in each well of 96-well plates in 90 μl growth medium. Cells were allowed to attach overnight followed by addition of 10 μl of serially diluted compounds into the plates. After incubation for 4 days at 37° C. in a humidified incubator, 20 μl of a 20:1 mixture of (3-(4,5-dimethylthiazol-2-yl)-5-(3-carboxymethoxyphenyl)-2-(4-sulfophenyl)-2H-tetrazolium, inner salt (MTS, 2 mg/ml) and an electron coupling reagent, phenazine methosulfate (PMS, 0.92 mg/ml), was added to each well and incubated for 3 hours at 37° C. Absorbance was then measured using the Wallace Victor microplate reader at 490 nm (PerkinElmer, Wellesley, Mass.). Data were expressed as the percentage of cell growth calculated from the absorbance corrected for background absorbance. The surviving fraction of cells was determined by dividing the mean absorbance values of the treated samples by the mean absorbance values of the DMSO control.
After generating the isogenic cell lines for the DPC4 gene, Applicants then carried out a screening process using the cell lines with the aim to identify compounds that selectively kill cells with deficient DPC4 function. […] In each round, the anti-proliferative activity of compounds was evaluated in different cell lines using the CellTiter 96 Non-Radioactive Cell Proliferation Assay (Promega). In the Toxicity Screen, compounds were evaluated in the BxPC-3 parental cell line at a single concentration of 10 μM. […] The activities of a compound in the DPC4 isogenic cell lines were calculated and a selectivity index was determined for each concentration (Selectivity index=Percentage cell survival in BxPC-3-DPC4 cells/Percentage cell survival in BxPC-3-vector cells). […] These ten compounds were further evaluated in third round of screening, the Selectivity screening. […]

[2] = tested on: BxPC-3 cells; assay: Cell cycle distribution analysis (propidium iodide, flow cytometry); format: cell-based, human; conditions: BxPC-3, 25 μM
Experimental: Cells (5×10^5) were plated in a T-25 tissue culture flask 24 hours prior to the drug treatment. […] After the treatment, the cells were harvested by trypsinization and centrifugation and then stained with propidium iodide (Sigma) in a modified Krishan buffer (20) for 4 hours at 4° C. The PI stained samples were then analyzed with a FACScan flow cytometer (BD Immunocytometry systems, San Jose, Calif.). Histograms were analyzed for cell cycle compartments and the percentage of cells at each phase of the cell cycle was calculated using CellQuest (BD Immunocytometry systems) analysis software.

[3] = tested on: BxPC-3-vector cells; assay: MTS based cell proliferation assay, BxPC-3-vector cells; set-up: species or system human; conditions: BxPC-3-vector (BxPc3Vc, pMSCVneo empty vector), 4 days
Experimental: as §1
(§2) After generating the isogenic cell lines for the DPC4 gene, Applicants then carried out a screening process using the cell lines with the aim to identify compounds that selectively kill cells with deficient DPC4 function. […]

[4] = tested on: Forf; assay: MTS cell proliferation assay, Forf normal fibroblasts; format: cell-based, human; conditions: even at 200 μM
Experimental: as §1, §2

[5] = tested on: HPDE6 (wild-type DPC4); assay: MTS cell proliferation assay, HPDE6 cells; format: cell-based; conditions: Homo sapiens
Experimental: At the initial screening, compounds are tested in the MTS assay (or other cell proliferation assays such as SRB and Alamar Blue) against the cell line in which the specific gene is either deleted or suppressed by siRNA at a single dose of 10 μM (Toxicity Screening).
Compounds that show more than 50% cell growth inhibition at this concentration are selected to test against both isogenic cell lines (loss-of-function vs. wild type) at three different concentrations (10, 2 and 0.4 μM, Synthetic lethal Screening). Compounds that show a selectivity index ≧5 are selected for next round of screening—Selectivity Screening.
In the Selectivity Screening, compounds are tested against cancer cell lines with a specific loss-of-function mutation and normal cells (HPDE6 and FORF-TERT). Depending on their approximate potency assessed in the Synthetic lethal Screening, compounds are tested in a range of concentrations (8 concentrations per agent) in Selectivity Screening. Compounds that have nM IC50 values in loss-of-function cells and selectivity index values >10 are selected for phenotypic consequence tests and in vivo evaluations in animal models.
The inhibition of cell proliferation by library compounds was evaluated using the CellTiter 96 Non-Radioactive Cell Proliferation Assay following the protocol recommended by the manufacturer (Promega, Madison Wis.). […]

[6] = tested on: HS766T (DPC4 deleted); assay: MTS cell proliferation assay, HS766T cells; format: cell-based; conditions: Homo sapiens
Experimental: as §1, §2

[7] = tested on: Panc-1 (DPC4 wildtype); assay: MTS cell proliferation assay, Panc-1 cells; format: cell-based; conditions: Homo sapiens
Experimental: as §1, §2

**Q.** For `O=C1c2ccccc2C(=O)c2c1ccc1c(=O)n(-c3ccccc3)[nH]c21` [UA62001, 2-phenyl-1H-Naphth [2,3-g]indazole-3,6,11(2H)-trione], which IC50 [1] is on record?
**A.** 14.7 ± 4.3 µM

**Q.** What about the IC50 ([1]; Homo sapiens, 96 h) of the same molecule?
**A.** 25 µM

**Q.** What about the “IC50 values in two more stable clones of BxPC-3-DPC4 cells” value ([1]; two more stable clones, compared with the original clone) of the same molecule?
**A.** very similar to that in the original clone

**Q.** What about the “cell population in S phase” value ([2]; 24 hours, control 33.6%) of the same molecule?
**A.** 55.6%

**Q.** And the “cell population in S phase” value ([2]; 48 hours, control 28.6%)?
**A.** 59.5%

**Q.** What about the “cell population in S phase” value ([2]; 72 hours, control 17.0%) of the same molecule?
**A.** 57.4%

**Q.** And the G2/M phase population ([2]; untreated control ~10%)?
**A.** ~20%

**Q.** And the IC50 [3]?
**A.** 3.2 ± 0.45 µM

**Q.** And the IC50 ([3]; Homo sapiens, 96 h)?
**A.** 3 µM

**Q.** And the growth inhibition [4]?
**A.** little growth inhibition

**Q.** What about the IC50 [5] of the same molecule?
**A.** > 100 µM

**Q.** And the IC50 [6]?
**A.** 3.1 µM

**Q.** And the IC50 [7]?
**A.** 26 µM
